Assay results taken from article PMC12682947, “Identification of New KCNT1‐Epilepsy Drugs by In Silico, Cell, and Drosophila Modeling” (Annals of Neurology, 2025).
Counter-ions that a name gives are not always drawn.

target: T1, R928C mutant KCNT1 channels (Homo sapiens, UniProt Q5JUK3, R909C); assay: Inside-out patch clamp of HEK293T cells expressing R928C KCNT1; assay type: cell-based; conditions: inside-out patches, mean ± SEM
T1 construct: YFP-6His; expressed in transfected cells; host or cells: HEK293T
T1 sequence (Q5JUK3 1-1235 isoform Q5JUK3-3 R928C): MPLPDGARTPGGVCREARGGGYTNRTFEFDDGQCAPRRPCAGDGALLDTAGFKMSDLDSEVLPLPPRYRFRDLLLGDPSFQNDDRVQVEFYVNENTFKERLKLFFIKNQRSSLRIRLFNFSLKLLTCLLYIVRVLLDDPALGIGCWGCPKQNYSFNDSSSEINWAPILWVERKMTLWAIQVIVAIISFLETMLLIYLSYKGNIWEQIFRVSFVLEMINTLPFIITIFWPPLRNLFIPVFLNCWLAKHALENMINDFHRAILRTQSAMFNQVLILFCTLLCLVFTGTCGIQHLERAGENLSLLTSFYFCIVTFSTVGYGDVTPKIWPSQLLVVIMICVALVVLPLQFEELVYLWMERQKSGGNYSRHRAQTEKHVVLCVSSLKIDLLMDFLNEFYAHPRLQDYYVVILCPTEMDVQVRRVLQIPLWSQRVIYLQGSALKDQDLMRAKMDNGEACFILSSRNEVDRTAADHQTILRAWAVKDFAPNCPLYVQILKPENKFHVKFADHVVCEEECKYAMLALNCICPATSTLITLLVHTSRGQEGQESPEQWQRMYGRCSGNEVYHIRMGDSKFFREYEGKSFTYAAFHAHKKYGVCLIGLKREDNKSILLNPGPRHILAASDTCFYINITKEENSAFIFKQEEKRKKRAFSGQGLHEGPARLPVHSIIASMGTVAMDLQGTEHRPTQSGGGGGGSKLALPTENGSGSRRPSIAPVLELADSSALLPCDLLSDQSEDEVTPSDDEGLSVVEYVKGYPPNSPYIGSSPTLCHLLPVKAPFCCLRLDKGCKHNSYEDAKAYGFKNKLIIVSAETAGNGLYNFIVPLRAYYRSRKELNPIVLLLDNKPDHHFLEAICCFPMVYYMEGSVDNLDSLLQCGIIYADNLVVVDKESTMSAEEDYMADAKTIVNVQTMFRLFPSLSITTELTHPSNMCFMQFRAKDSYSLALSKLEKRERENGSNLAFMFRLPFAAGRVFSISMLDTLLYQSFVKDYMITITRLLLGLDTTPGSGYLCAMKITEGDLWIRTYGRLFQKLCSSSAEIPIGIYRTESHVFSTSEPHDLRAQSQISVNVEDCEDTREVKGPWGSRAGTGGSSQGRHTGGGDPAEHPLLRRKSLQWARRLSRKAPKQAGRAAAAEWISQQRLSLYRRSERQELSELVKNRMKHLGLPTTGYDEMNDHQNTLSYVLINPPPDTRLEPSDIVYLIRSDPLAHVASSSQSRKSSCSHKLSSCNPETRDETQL
Experimental: The CHO cells were cultured in Dulbecco's modified Eagle's Medium (ThermoFisher, UK) supplemented with 10% (v/v) fetal bovine serum, 50 U/ml penicillin and 0.05 mg/ml streptomycin, and incubated at 37°C in 5% CO2 atmosphere. For whole cell recording of WT/Y796H KCNT1, CHO cells were transiently co‐transfected with concatemeric WT/Y796H and EYFP, as described previously.[29] For electrophysiological experiments, cells were plated onto borosilicate glass cover slips and used 2 to 4 days later. Human embryonic kidney 293T cells (HEK293T) were cultured in the same manner, but with medium supplemented with 2 mM L‐glutamine, and 1% (v/v) nonessential amino acids. For excised inside‐out recording of homomeric WT or mutant YFP‐tagged KCNT1, HEK293T cells plated on glass cover slips were transfected using Attractene Transfection Reagent (Qiagen, Germany) according to the manufacturer's instructions and used 2 to 3 days later.
Inside‐out patch clamp recordings were made at room temperature (23°C) from transiently transfected HEK293T cells, as described previously.[11] The pipette solution contained, in mM, 140 NaCl, 4 KCl, 2 CaCl2, 2 MgCl2, and 10 HEPES adjusted to pH 7.4 with NaOH. […] KCNT1 currents were recorded using 2 voltage protocols, depending on the number of active channels in the patch before drug application. Macroscopic currents (number of active channels > 15) were recorded in response to 100 ms voltage ramps between −120 and 120 mV applied every 2 seconds from a holding potential of −78 mV. […] With a lower number of active channels in the patch (3–15), current traces were recorded in response to 15‐second voltage steps to −20, 0, and 20 mV from a holding potential of −78 mV. Currents recorded at each voltage and each drug concentration were averaged over the duration of the trace and normalized to the average amplitudes of the corresponding current traces in drug‐free solution. […] Single channel data were analyzed using Ana software developed by Dr Michael Pusch (Istituto di Biofisica, Genova, Italy; http://users.ge.ibf.cnr.it/pusch/programs-mik.htm). […]

SMILES | IC50 [nM]
CC(C)c1c(C(=O)Nc2ccccc2)c(-c2ccccc2)c(-c2ccc(F)cc2)n1CC[C@@H](O)C[C@@H](O)CC(=O)O [atorvastatin] | 1200 ± 300
O=C(OCCN1CCN(c2cccc(C(F)(F)F)c2)CC1)c1ccccc1Nc1ccnc2cc(C(F)(F)F)ccc12 [antrafenine] | 12.3 ± 3.9
Cc1c(O)cccc1C(=O)N[C@@H](CSc1ccccc1)[C@H](O)CN1C[C@H]2CCCC[C@H]2C[C@H]1C(=O)NC(C)(C)C [nelfinavir mesylate] | 8 ± 1.1
